Reference: ChEMBL document CHEMBL4680157, “Design, synthesis and biological evaluation of novel TRβ selective agonists sustained by ADME-toxicity analysis” (Eur J Med Chem, 2020)

How the values were obtained:
[1] = Cytotoxicity against human U2OS cells assessed as cell growth inhibition at 10 uM after 24 hrs relative to control; format: cell-based
HDAC9 = HDAC9 (Homo sapiens, UniProt Q9UKV0); assay: Inhibition of HDAC9 (unknown origin) at 10 uM relative to control
CYP3A4 = CYP3A4 (Homo sapiens, UniProt P08684); assay: Inhibition of CYP3A4 (unknown origin) at 10 uM relative to control; format: ADME
CYP1A2 = molecular target: T1, CYP1A2 (Homo sapiens, UniProt P05177); assay: Inhibition of CYP1A2 (unknown origin) at 10 uM relative to control; format: ADME
T1 sequence (P05177 whole entry): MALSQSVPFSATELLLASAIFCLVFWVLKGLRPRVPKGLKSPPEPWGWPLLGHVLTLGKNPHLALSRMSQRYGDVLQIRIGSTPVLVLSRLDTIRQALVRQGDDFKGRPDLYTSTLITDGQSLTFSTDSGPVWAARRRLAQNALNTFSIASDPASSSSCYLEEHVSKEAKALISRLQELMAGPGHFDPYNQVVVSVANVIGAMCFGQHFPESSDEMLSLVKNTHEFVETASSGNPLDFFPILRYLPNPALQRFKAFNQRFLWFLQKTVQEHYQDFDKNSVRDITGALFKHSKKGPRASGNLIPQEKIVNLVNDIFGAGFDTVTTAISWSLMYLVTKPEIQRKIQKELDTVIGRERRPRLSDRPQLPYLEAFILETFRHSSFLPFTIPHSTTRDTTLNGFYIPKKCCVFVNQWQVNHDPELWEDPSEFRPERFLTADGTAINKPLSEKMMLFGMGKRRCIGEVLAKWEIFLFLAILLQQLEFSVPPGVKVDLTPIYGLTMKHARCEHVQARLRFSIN

[2] = Cytotoxicity against human U2OS cells assessed as cell growth inhibition at 10 uM after 48 hrs relative to control; format: cell-based
HDAC8 = molecular target: T2, HDAC8 (Homo sapiens, UniProt Q9BY41); assay: Inhibition of HDAC8 (unknown origin) at 10 uM relative to control
T2 sequence (Q9BY41 whole entry): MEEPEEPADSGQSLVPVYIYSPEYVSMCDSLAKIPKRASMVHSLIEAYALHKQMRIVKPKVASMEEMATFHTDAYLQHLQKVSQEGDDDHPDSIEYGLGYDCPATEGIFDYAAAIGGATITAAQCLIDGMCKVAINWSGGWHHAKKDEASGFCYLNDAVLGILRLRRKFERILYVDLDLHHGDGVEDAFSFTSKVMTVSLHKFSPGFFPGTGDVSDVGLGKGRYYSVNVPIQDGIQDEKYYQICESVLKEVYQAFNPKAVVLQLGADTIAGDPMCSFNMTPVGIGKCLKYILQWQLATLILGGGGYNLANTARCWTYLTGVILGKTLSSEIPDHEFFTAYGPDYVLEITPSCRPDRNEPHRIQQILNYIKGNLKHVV

[3] = molecular target: 3',5'-cyclic-AMP phosphodiesterase 4C (Homo sapiens) (UniProt Q08493); assay: Inhibition of PDE4C1 (unknown origin) at 10 uM relative to control
CYP2D6 = CYP2D6 (Homo sapiens, UniProt P10635); assay: Inhibition of CYP2D6 (unknown origin) at 10 uM relative to control; format: ADME
[4] = Cytotoxicity against human HEK293 cells assessed as cell growth inhibition at 10 uM after 24 hrs relative to control; format: cell-based
CYP2C9 = CYP2C9 (Homo sapiens, UniProt P11712); assay: Inhibition of CYP2C9 (unknown origin) at 10 uM relative to control; format: ADME
HDAC6 = molecular target: T3, HDAC6 (Homo sapiens, UniProt Q9UBN7); assay: Inhibition of HDAC6 (unknown origin) at 10 uM relative to control
T3 sequence (Q9UBN7 whole entry): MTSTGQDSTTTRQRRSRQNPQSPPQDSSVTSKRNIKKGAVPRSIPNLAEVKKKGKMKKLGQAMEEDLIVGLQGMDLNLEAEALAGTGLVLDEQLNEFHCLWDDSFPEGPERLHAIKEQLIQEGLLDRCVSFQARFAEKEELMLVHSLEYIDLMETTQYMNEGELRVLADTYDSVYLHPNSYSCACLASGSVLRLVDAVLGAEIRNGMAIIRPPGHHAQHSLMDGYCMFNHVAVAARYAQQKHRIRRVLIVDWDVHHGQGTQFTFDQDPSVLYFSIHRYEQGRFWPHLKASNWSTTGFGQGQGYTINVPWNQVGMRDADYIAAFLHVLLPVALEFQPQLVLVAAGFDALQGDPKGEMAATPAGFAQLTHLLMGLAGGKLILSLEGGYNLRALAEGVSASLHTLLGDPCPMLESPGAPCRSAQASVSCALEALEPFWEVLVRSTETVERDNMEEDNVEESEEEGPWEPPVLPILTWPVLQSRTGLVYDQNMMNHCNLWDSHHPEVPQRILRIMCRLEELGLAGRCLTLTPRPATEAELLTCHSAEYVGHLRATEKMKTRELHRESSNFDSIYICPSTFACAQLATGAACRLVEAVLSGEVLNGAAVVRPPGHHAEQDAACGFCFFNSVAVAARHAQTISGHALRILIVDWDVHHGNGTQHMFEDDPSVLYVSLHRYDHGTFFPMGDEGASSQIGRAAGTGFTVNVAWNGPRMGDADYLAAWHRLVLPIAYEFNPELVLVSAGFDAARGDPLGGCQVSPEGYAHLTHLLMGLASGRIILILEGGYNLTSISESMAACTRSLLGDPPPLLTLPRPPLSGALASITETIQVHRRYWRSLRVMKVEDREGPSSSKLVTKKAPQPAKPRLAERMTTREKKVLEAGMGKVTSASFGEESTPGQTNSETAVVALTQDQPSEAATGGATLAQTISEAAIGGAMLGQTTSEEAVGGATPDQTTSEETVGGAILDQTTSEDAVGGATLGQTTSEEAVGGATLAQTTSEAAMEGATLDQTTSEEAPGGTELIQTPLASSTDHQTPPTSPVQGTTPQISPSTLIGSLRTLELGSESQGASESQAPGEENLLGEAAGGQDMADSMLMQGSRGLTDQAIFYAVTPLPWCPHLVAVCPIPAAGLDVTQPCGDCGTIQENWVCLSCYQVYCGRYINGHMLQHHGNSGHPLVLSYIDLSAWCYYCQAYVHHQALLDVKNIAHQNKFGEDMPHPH

[5] = Cytotoxicity against human hTERT cells assessed as cell growth inhibition at 10 uM after 48 hrs relative to control; format: cell-based, hTERT-BJ
[6] = Cytotoxicity against human MCF7 cells assessed as cell growth inhibition at 10 uM after 48 hrs relative to control; format: cell-based
SIRT7 = molecular target: T4, SIRT7 (Homo sapiens, UniProt Q9NRC8); assay: Inhibition of SIRT7 (unknown origin) at 10 uM relative to control
T4 sequence (Q9NRC8 whole entry): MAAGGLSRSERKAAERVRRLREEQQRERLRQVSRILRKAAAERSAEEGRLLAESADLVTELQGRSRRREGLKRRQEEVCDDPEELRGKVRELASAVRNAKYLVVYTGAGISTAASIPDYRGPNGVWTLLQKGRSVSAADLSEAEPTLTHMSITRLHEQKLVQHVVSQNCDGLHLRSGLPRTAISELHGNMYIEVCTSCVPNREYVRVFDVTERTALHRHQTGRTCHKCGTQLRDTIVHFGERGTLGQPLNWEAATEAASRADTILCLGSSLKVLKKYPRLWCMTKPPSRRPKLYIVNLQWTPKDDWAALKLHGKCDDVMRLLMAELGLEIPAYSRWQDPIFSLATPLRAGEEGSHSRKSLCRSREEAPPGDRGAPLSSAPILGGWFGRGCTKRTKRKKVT

CYP2C19 = CYP2C19 (Homo sapiens, UniProt P33261); assay: Inhibition of CYP2C19 (unknown origin) at 10 uM relative to control; format: ADME
[7] = Cytotoxicity against human hTERT cells assessed as cell growth inhibition at 10 uM after 24 hrs relative to control; format: cell-based, hTERT-BJ
[8] = Cytotoxicity against human MCF7 cells assessed as cell growth inhibition at 10 uM after 24 hrs relative to control; format: cell-based
Aurora B = Aurora B (Homo sapiens, UniProt Q96GD4); assay: Inhibition of Aurora B (unknown origin) at 10 uM relative to control
HDAC4 = HDAC4 (Homo sapiens, UniProt P56524); assay: Inhibition of HDAC4 (unknown origin) at 10 uM relative to control
hERG (KCNH2) = hERG (KCNH2) (Homo sapiens, UniProt Q12809); assay: Inhibition of human ERG at 10 uM by fluorescence polarization assay relative to control
[9] = Cytotoxicity against human HEK293 cells assessed as cell growth inhibition at 10 uM after 48 hrs relative to control; format: cell-based

3',5'-cyclic-AMP phosphodiesterase 4C (Homo sapiens), sequence (Q08493 whole entry): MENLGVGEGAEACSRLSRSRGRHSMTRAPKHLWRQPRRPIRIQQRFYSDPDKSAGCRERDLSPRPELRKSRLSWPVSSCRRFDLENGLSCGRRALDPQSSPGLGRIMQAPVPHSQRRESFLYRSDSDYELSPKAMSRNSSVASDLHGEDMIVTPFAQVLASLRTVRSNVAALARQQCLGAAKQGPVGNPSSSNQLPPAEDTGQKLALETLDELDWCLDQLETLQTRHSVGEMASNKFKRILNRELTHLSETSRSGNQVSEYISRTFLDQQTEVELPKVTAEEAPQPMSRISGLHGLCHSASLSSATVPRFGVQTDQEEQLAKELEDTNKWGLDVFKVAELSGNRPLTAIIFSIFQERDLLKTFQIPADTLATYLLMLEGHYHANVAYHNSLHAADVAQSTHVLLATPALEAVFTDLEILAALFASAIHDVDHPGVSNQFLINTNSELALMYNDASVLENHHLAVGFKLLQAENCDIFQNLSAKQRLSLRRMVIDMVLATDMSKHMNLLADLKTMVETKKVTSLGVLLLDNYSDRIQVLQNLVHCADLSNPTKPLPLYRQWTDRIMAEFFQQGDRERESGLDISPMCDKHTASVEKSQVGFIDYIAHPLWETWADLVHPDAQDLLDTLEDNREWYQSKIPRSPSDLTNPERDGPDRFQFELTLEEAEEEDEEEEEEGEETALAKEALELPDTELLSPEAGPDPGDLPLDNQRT
CYP2C9, sequence (P11712 whole entry): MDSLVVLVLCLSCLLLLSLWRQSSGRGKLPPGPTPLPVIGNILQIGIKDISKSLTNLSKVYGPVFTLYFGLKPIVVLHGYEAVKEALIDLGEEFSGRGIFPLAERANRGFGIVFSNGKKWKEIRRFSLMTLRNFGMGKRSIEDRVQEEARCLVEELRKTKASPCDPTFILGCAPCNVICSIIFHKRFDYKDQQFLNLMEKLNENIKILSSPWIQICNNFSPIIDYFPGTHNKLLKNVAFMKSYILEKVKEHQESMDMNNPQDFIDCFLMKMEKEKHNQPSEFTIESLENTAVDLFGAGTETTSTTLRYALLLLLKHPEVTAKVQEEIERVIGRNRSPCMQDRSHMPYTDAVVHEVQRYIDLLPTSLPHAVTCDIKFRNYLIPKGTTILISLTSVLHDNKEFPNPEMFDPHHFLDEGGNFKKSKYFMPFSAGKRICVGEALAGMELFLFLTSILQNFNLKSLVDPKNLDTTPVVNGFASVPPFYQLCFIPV
hERG (KCNH2), sequence (Q12809 whole entry): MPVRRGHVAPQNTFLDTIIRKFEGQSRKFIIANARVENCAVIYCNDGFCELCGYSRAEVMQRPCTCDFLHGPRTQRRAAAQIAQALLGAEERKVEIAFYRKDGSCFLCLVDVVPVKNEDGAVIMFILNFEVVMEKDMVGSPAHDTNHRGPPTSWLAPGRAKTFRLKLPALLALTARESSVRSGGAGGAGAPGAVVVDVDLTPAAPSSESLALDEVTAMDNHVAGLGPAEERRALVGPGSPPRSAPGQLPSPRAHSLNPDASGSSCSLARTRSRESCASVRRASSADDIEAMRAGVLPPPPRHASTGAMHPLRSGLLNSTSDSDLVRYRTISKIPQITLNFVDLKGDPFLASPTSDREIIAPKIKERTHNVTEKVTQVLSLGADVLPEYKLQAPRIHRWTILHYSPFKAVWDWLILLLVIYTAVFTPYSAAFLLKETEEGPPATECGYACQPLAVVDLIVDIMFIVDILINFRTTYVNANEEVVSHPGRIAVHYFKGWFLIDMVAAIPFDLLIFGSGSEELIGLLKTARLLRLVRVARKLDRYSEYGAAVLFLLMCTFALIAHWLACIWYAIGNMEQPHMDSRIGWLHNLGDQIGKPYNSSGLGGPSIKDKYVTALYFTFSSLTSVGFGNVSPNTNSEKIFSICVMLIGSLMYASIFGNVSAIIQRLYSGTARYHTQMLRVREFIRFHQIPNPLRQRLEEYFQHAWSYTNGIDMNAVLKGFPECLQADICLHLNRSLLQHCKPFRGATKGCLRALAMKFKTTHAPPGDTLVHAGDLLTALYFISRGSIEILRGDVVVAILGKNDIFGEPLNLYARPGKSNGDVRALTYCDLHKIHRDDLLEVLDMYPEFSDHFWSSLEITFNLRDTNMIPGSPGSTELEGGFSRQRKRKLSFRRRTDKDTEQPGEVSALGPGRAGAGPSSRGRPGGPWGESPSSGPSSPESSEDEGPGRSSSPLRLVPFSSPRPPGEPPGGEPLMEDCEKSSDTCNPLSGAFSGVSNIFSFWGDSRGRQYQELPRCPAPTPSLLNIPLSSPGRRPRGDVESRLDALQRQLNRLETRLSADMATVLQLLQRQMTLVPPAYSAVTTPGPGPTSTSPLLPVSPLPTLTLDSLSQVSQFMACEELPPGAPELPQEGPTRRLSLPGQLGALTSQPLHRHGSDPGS
CYP2C19, sequence (P33261 whole entry): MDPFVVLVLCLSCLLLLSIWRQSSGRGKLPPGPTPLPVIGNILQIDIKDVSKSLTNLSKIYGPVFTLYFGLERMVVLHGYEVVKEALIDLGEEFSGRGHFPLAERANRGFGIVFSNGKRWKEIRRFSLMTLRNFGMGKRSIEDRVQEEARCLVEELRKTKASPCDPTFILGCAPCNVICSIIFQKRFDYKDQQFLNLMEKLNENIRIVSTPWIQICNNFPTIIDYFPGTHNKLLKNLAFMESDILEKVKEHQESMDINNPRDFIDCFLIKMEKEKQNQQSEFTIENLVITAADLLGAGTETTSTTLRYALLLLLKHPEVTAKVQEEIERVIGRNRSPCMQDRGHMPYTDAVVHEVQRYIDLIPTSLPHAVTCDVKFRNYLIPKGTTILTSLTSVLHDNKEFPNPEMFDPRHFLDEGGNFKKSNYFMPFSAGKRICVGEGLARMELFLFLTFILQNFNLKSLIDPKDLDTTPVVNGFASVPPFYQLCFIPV
HDAC4, sequence (P56524 whole entry): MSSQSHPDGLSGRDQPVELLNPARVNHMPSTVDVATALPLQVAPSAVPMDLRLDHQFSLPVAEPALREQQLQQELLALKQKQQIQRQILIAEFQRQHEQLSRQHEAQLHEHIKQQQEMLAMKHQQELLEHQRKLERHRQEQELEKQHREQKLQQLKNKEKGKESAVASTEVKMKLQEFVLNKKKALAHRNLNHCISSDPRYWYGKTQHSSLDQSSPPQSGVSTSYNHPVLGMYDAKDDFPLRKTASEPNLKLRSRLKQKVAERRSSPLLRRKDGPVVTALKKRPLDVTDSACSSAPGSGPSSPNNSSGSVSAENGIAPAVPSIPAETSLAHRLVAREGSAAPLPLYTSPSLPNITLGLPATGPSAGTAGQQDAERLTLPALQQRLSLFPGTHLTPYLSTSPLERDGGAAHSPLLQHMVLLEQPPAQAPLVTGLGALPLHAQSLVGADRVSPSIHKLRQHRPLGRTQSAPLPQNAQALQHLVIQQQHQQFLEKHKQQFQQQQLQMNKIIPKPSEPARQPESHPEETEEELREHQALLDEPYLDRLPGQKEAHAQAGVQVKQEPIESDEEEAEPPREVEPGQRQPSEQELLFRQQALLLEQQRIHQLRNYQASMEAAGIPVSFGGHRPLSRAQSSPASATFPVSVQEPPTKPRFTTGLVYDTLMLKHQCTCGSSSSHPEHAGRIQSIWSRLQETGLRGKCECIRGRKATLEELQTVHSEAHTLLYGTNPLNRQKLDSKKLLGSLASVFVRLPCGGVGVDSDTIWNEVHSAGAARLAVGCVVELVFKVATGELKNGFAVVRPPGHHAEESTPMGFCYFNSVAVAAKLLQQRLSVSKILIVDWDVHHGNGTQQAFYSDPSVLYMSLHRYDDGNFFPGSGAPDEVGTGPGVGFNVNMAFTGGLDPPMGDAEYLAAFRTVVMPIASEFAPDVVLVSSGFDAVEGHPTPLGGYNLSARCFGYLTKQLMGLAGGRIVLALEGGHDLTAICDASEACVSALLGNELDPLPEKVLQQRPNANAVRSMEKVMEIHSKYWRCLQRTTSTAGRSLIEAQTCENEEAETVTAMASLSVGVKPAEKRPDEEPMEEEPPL
CYP2D6, sequence (P10635 whole entry): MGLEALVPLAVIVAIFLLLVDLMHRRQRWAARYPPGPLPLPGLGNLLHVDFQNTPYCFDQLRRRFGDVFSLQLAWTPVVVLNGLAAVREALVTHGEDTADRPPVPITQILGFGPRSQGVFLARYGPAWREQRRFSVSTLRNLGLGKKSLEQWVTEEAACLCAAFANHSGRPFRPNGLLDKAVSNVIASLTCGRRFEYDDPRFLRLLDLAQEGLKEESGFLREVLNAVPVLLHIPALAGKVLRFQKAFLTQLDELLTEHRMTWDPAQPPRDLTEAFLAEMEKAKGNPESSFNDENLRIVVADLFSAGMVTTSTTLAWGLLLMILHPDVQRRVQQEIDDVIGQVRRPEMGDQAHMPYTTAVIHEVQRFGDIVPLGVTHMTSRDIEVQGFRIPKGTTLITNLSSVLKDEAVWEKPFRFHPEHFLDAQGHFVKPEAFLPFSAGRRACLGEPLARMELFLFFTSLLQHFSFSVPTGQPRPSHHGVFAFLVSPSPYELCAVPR
Aurora B, sequence (Q96GD4 whole entry): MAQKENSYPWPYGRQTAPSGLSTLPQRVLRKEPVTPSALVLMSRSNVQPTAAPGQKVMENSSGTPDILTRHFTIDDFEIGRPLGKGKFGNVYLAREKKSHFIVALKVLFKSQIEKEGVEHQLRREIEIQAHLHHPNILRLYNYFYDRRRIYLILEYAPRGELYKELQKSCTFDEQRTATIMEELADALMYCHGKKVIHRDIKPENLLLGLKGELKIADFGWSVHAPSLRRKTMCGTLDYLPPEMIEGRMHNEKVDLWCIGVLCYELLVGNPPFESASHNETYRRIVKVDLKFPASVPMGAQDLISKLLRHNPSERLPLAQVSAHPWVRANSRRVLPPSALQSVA

Row | inhibition at 10 µM (HDAC9) [%] | inhibition at 10 µM (CYP3A4) [%] | inhibition at 10 µM (CYP1A2) [%] | inhibition at 10 µM (HDAC8) [%] | inhibition [3] [%] | inhibition at 10 µM (CYP2D6) [%] | inhibition at 10 µM (CYP2C9) [%] | inhibition at 10 µM (HDAC6) [%] | inhibition at 10 µM (SIRT7) [%] | inhibition at 10 µM (CYP2C19) [%] | inhibition at 10 µM (Aurora B) [%] | inhibition at 10 µM (HDAC4) [%] | SMILES | inhibition at 24 h, 10 µM [1] [%] | inhibition at 48 h, 10 µM [2] [%] | inhibition at 24 h, 10 µM [4] [%] | inhibition at 48 h, 10 µM [5] [%] | inhibition at 48 h, 10 µM [6] [%] | inhibition at 24 h, 10 µM [7] [%] | inhibition at 24 h, 10 µM [8] [%] | inhibition at 10 µM (hERG (KCNH2)) [%] | further results
1 | < 50 | 51 | > 91 | < 50 | < 50 | 51 | > 91 | < 50 | < 50 | > 91 | < 50 | < 50 | NCCOc1ccc(Cc2ccc(N)cc2)c(C(F)(F)F)c1 | < 50 | < 50 | < 50 | < 50 | < 50 | < 50 | < 50 | 51 | inhibition at 48 h, 10 µM [9]: < 50%
2 | < 50 | < 50 | < 50 | < 50 | < 50 | < 50 | < 50 | < 50 | < 50 | < 50 | < 50 | < 50 | CC(=O)Nc1ccc(Cc2ccc(OCC(=O)O)cc2)cc1C(C)C | < 50 | < 50 | < 50 | < 50 | < 50 | < 50 | < 50 | < 40 | inhibition at 48 h, 10 µM [9]: < 50%
3 | < 50 | > 91 | 51 | < 50 | < 50 | 51 | > 91 | < 50 | < 50 | > 91 | < 50 | < 50 | CCNc1ccc(Cc2c(C)cc(OCC(=O)O)cc2C)cc1C(C)C | < 50 | < 50 | < 50 | < 50 | < 50 | < 50 | < 50 | 51 | inhibition at 48 h, 10 µM [9]: < 50%
4 | < 50 | > 91 | > 91 | < 50 | < 50 | 51 | > 91 | < 50 | < 50 | > 91 | < 50 | < 50 | CCNc1ccc(Cc2ccc(OCC(=O)O)cc2)cc1C(C)C | < 50 | < 50 | < 50 | < 50 | 51 | 51 | 65 | > 91 | inhibition at 48 h, 10 µM [9]: < 50%
5 | < 50 | < 50 | < 50 | < 50 | < 50 | < 50 | < 50 | < 50 | < 50 | < 50 | < 50 | < 50 | Cc1cc(OCC(=O)O)cc(C)c1Cc1ccc(N)cc1 | < 50 | < 50 | < 50 | < 50 | < 50 | < 50 | < 50 | < 25 | inhibition at 48 h, 10 µM [9]: < 50%
6 | < 50 | < 50 | < 50 | < 50 | < 50 | < 50 | < 50 | < 50 | < 50 | < 50 | < 50 | < 50 | CC(C)c1cc(Cc2ccc(OCC(=O)O)cc2)ccc1N | < 50 | < 50 | < 50 | < 50 | < 50 | < 50 | < 50 | < 40 | inhibition at 48 h, 10 µM [9]: < 50%
